According to ChEMBL document CHEMBL3046652, “Photodimerization of heteroaryl chalcones: comparative antimicrobial activities of chalcones and their photoproducts” (2012):
Converted amounts (≈) assume the structure as drawn.

Key:
Type in all cases: functional
Serratia marcescens [1] = assay: Antimicrobial activity against Serratia marcescens by disk diffusion method
Micrococcus luteus [2] = assay: Antimicrobial activity against Micrococcus luteus by disk diffusion method
Salmonella typhi [3] = assay: Antimicrobial activity against Salmonella enterica subsp. enterica serovar Typhi by disk diffusion method
Pseudomonas aeruginosa [4] = assay: Antimicrobial activity against Pseudomonas aeruginosa by disk diffusion method
Escherichia coli [5] = assay: Antimicrobial activity against Escherichia coli by disk diffusion method
Priestia megaterium [6] = assay: Antimicrobial activity against Bacillus megaterium by disk diffusion method
Proteus vulgaris [7] = assay: Antimicrobial activity against Proteus vulgaris by disk diffusion method
Klebsiella pneumoniae [8] = assay: Antimicrobial activity against Klebsiella pneumoniae by disk diffusion method
Citrobacter freundii [9] = assay: Antimicrobial activity against Citrobacter freundii by disk diffusion method
Candida albicans [10] = assay: Antimicrobial activity against Candida albicans at 20 ug/disk by disk diffusion method; details: read-out: DIZ
Fusarium verticillioides [11] = assay: Antimicrobial activity against Fusarium verticillioides at 20 ug/disk by disk diffusion method; details: read-out: DIZ
Aspergillus niger [12] = assay: Antimicrobial activity against Aspergillus niger at 10 ug/disk by disk diffusion method; details: read-out: DIZ
Aspergillus oryzae [13] = assay: Antimicrobial activity against Aspergillus oryzae at 10 ug/disk by disk diffusion method; details: read-out: DIZ
Serratia marcescens [14] = assay: Antimicrobial activity against Serratia marcescens at 10 ug/disk by disk diffusion method; details: read-out: DIZ
Micrococcus luteus [15] = assay: Antimicrobial activity against Micrococcus luteus at 10 ug/disc by disk diffusion method; details: read-out: DIZ
Salmonella typhi [16] = assay: Antimicrobial activity against Salmonella enterica subsp. enterica serovar Typhi at 10 ug/disk by disk diffusion method; details: read-out: DIZ
Pseudomonas aeruginosa [17] = assay: Antimicrobial activity against Pseudomonas aeruginosa at 10 ug/disk by disk diffusion method; details: read-out: DIZ
Escherichia coli [18] = assay: Antimicrobial activity against Escherichia coli at 10 ug/disk by disk diffusion method; details: read-out: DIZ
Priestia megaterium [19] = assay: Antimicrobial activity against Bacillus megaterium at 10 ug/disk by disk diffusion method; details: read-out: DIZ
Proteus vulgaris [20] = assay: Antimicrobial activity against Proteus vulgaris at 10 ug/disk by disk diffusion method; details: read-out: DIZ
Klebsiella pneumoniae [21] = assay: Antimicrobial activity against Klebsiella pneumoniae at 10 ug/disk by disk diffusion method; details: read-out: DIZ
Citrobacter freundii [22] = assay: Antimicrobial activity against Citrobacter freundii at 10 ug/disk by disk diffusion method; details: read-out: DIZ
Candida albicans [23] = assay: Antimicrobial activity against Candida albicans at 10 to 60 ug/disk by disk diffusion method
Fusarium verticillioides [24] = assay: Antimicrobial activity against Fusarium verticillioides at 10 to 60 ug/disk by disk diffusion method
Aspergillus niger [25] = assay: Antimicrobial activity against Aspergillus niger at 10 to 60 ug/disk by disk diffusion method
Aspergillus oryzae [26] = assay: Antimicrobial activity against Aspergillus oryzae at 10 to 60 ug/disk by disk diffusion method
Serratia marcescens [27] = assay: Antimicrobial activity against Serratia marcescens at 10 to 60 ug/disk by disk diffusion method
Micrococcus luteus [28] = assay: Antimicrobial activity against Micrococcus luteus at 10 to 60 ug/disc by disk diffusion method
Salmonella typhi [29] = assay: Antimicrobial activity against Salmonella enterica subsp. enterica serovar Typhi at 10 to 60 ug/disk by disk diffusion method
Pseudomonas aeruginosa [30] = assay: Antimicrobial activity against Pseudomonas aeruginosa at 10 to 60 ug/disk by disk diffusion method
Escherichia coli [31] = assay: Antimicrobial activity against Escherichia coli at 10 to 60 ug/disk by disk diffusion method
Priestia megaterium [32] = assay: Antimicrobial activity against Bacillus megaterium at 10 to 60 ug/disk by disk diffusion method
Proteus vulgaris [33] = assay: Antimicrobial activity against Proteus vulgaris at 10 to 60 ug/disk by disk diffusion method
Citrobacter freundii [34] = assay: Antimicrobial activity against Citrobacter freundii at 10 to 60 ug/disk by disk diffusion method
Klebsiella pneumoniae [35] = assay: Antimicrobial activity against Klebsiella pneumoniae at 10 to 60 ug/disk by disk diffusion method
Candida albicans [36] = assay: Antimicrobial activity against Candida albicans at 10 ug/disk by disk diffusion method; details: read-out: DIZ
Aspergillus oryzae [37] = assay: Antimicrobial activity against Aspergillus oryzae at 30 ug/disk by disk diffusion method; details: read-out: DIZ
Fusarium verticillioides [38] = assay: Antimicrobial activity against Fusarium verticillioides at 40 ug/disk by disk diffusion method; details: read-out: DIZ
Aspergillus niger [39] = assay: Antimicrobial activity against Aspergillus niger at 50 ug/disk by disk diffusion method; details: read-out: DIZ
Candida albicans [40] = assay: Antimicrobial activity against Candida albicans at 40 ug/disk by disk diffusion method; details: read-out: DIZ
Pseudomonas aeruginosa [41] = assay: Antimicrobial activity against Pseudomonas aeruginosa at 40 ug/disk by disk diffusion method; details: read-out: DIZ
Citrobacter freundii [42] = assay: Antimicrobial activity against Citrobacter freundii at 20 ug/disk by disk diffusion method; details: read-out: DIZ
Klebsiella pneumoniae [43] = assay: Antimicrobial activity against Klebsiella pneumoniae at 20 ug/disk by disk diffusion method; details: read-out: DIZ

| Compound | MIC (Serratia marcescens [1]) [µg/mL] | MIC (Micrococcus luteus [2]) [µg/mL] | MIC (Salmonella typhi [3]) [µg/mL] | MIC (Pseudomonas aeruginosa [4]) [µg/mL] | MIC (Escherichia coli [5]) [µg/mL] | MIC (Priestia megaterium [6]) [µg/mL] | MIC (Proteus vulgaris [7]) [µg/mL] | diameter of the inhibition zone (DIZ) (Candida albicans [23]) [mm] | diameter of the inhibition zone (DIZ) (Fusarium verticillioides [24]) [mm] | diameter of the inhibition zone (DIZ) (Aspergillus niger [25]) [mm] | diameter of the inhibition zone (DIZ) (Aspergillus oryzae [26]) [mm] | diameter of the inhibition zone (DIZ) (Serratia marcescens [27]) [mm] | diameter of the inhibition zone (DIZ) (Micrococcus luteus [28]) [mm] | diameter of the inhibition zone (DIZ) (Salmonella typhi [29]) [mm] | diameter of the inhibition zone (DIZ) (Pseudomonas aeruginosa [30]) [mm] | diameter of the inhibition zone (DIZ) (Escherichia coli [31]) [mm] | diameter of the inhibition zone (DIZ) (Priestia megaterium [32]) [mm] | diameter of the inhibition zone (DIZ) (Proteus vulgaris [33]) [mm] | diameter of the inhibition zone (DIZ) (Citrobacter freundii [34]) [mm] | diameter of the inhibition zone (DIZ) (Klebsiella pneumoniae [35]) [mm] | other results |
| --- | --- | --- | --- | --- | --- | --- | --- | --- | --- | --- | --- | --- | --- | --- | --- | --- | --- | --- | --- | --- | --- |
| O=C(/C=C/c1ccccc1)c1ccco1 | 10 (≈ 50.4 µM) | 10 (≈ 50.4 µM) | 10 (≈ 50.4 µM) | 10 (≈ 50.4 µM) | 10 (≈ 50.4 µM) | 10 (≈ 50.4 µM) | 10 (≈ 50.4 µM) |  |  |  |  |  |  |  |  |  |  |  |  |  | MIC (Klebsiella pneumoniae [8]): 10 µg/mL (≈ 50.4 µM); MIC (Citrobacter freundii [9]): 10 µg/mL (≈ 50.4 µM); zone of inhibition at 20 µg/disc (Candida albicans [10]): 7 mm; zone of inhibition at 20 µg/disc (Fusarium verticillioides [11]): 7 mm; zone of inhibition at 10 µg/disc (Aspergillus niger [12]): 11 mm; zone of inhibition at 10 µg/disc (Aspergillus oryzae [13]): 8 mm; zone of inhibition at 10 µg/disc (Serratia marcescens [14]): 5 mm; zone of inhibition at 10 µg/disc (Micrococcus luteus [15]): 11 mm; zone of inhibition at 10 µg/disc (Salmonella typhi [16]): 5 mm; zone of inhibition at 10 µg/disc (Pseudomonas aeruginosa [17]): 5 mm; zone of inhibition at 10 µg/disc (Escherichia coli [18]): 5 mm; zone of inhibition at 10 µg/disc (Priestia megaterium [19]): 11 mm; zone of inhibition at 10 µg/disc (Proteus vulgaris [20]): 8 mm; zone of inhibition at 10 µg/disc (Klebsiella pneumoniae [21]): 7 mm; zone of inhibition at 10 µg/disc (Citrobacter freundii [22]): 13 mm |
| O=C(c1cccs1)C1C(C(=O)c2cccs2)C(c2ccccc2)C1c1ccccc1 (centres undefined) |  |  |  |  |  |  |  | 5 | 5 | 5 | 5 | 5 | 7 | 6 | 5 | 5 | 9 | 5 | 5 | 5 |  |
| O=C(/C=C/c1ccco1)c1ccccc1 | 10 (≈ 50.4 µM) | 10 (≈ 50.4 µM) | 10 (≈ 50.4 µM) | 10 (≈ 50.4 µM) | 10 (≈ 50.4 µM) | 20 (≈ 101 µM) | 20 (≈ 101 µM) |  |  |  |  |  |  |  |  |  |  |  |  |  | MIC (Klebsiella pneumoniae [8]): 10 µg/mL (≈ 50.4 µM); MIC (Citrobacter freundii [9]): 10 µg/mL (≈ 50.4 µM); zone of inhibition at 10 µg/disc (Candida albicans [36]): 9 mm; zone of inhibition at 20 µg/disc (Fusarium verticillioides [11]): 7 mm; zone of inhibition at 10 µg/disc (Aspergillus niger [12]): 8 mm; zone of inhibition at 30 µg/disc (Aspergillus oryzae [37]): 8 mm; zone of inhibition at 10 µg/disc (Serratia marcescens [14]): 7 mm; zone of inhibition at 10 µg/disc (Micrococcus luteus [15]): 9 mm; zone of inhibition at 10 µg/disc (Salmonella typhi [16]): 5 mm; zone of inhibition at 10 µg/disc (Pseudomonas aeruginosa [17]): 5 mm; zone of inhibition at 10 µg/disc (Escherichia coli [18]): 5 mm; zone of inhibition at 10 µg/disc (Priestia megaterium [19]): 9 mm; zone of inhibition at 10 µg/disc (Proteus vulgaris [20]): 9 mm; zone of inhibition at 10 µg/disc (Klebsiella pneumoniae [21]): 6 mm; zone of inhibition at 10 µg/disc (Citrobacter freundii [22]): 7 mm |
| OC(/C=C/c1ccco1)(c1ccccc1)C(O)(/C=C/c1ccco1)c1ccccc1 (centres undefined) |  |  |  |  |  |  |  | 5 | 7 | 9 | 5 | 5 | 6 | 5 | 5 | 5 | 7 | 9 | 9 | 5 |  |
| O=C(c1ccco1)C1C(C(=O)c2ccco2)C(c2ccccc2)C1c1ccccc1 (centres undefined) |  |  |  |  |  |  |  | 5 | 6 | 5 | 5 | 5 | 7 | 5 | 5 | 5 | 5 | 7 | 5 | 5 |  |
| OC(/C=C/c1cccs1)(c1ccccc1)C(O)(/C=C/c1cccs1)c1ccccc1 (centres undefined) |  |  |  |  |  |  |  | 5 | 5 | 5 | 5 | 5 | 8 | 7 | 5 | 5 | 5 | 5 | 5 | 7 |  |
| O=C(c1ccc[nH]1)C1C(C(=O)c2ccc[nH]2)C(c2ccccc2)C1c1ccccc1 (centres undefined) |  |  |  |  |  |  |  | 5 | 5 | 5 | 5 | 5 | 5 | 5 | 6 | 5 | 5 | 5 | 5 | 5 |  |
| OC(/C=C/c1ccc[nH]1)(c1ccccc1)C(O)(/C=C/c1ccc[nH]1)c1ccccc1 (centres undefined) |  |  |  |  |  |  |  | 5 | 5 | 5 | 9 | 5 | 5 | 5 | 5 | 5 | 5 | 5 | 5 | 5 |  |
| O=C(/C=C/c1ccc[nH]1)c1ccccc1 | 10 (≈ 50.7 µM) | 10 (≈ 50.7 µM) | 10 (≈ 50.7 µM) | 10 (≈ 50.7 µM) | 10 (≈ 50.7 µM) | 10 (≈ 50.7 µM) | 10 (≈ 50.7 µM) |  |  |  |  |  |  |  |  |  |  |  |  |  | MIC (Klebsiella pneumoniae [8]): 10 µg/mL (≈ 50.7 µM); MIC (Citrobacter freundii [9]): 10 µg/mL (≈ 50.7 µM); zone of inhibition at 40 µg/disc (Fusarium verticillioides [38]): 6 mm; zone of inhibition at 50 µg/disc (Aspergillus niger [39]): 8 mm; zone of inhibition at 40 µg/disc (Candida albicans [40]): 7 mm; zone of inhibition at 10 µg/disc (Aspergillus oryzae [13]): 9 mm; zone of inhibition at 10 µg/disc (Serratia marcescens [14]): 7 mm; zone of inhibition at 10 µg/disc (Micrococcus luteus [15]): 7 mm; zone of inhibition at 10 µg/disc (Salmonella typhi [16]): 5 mm; zone of inhibition at 40 µg/disc (Pseudomonas aeruginosa [41]): 9 mm; zone of inhibition at 10 µg/disc (Escherichia coli [18]): 6 mm; zone of inhibition at 10 µg/disc (Priestia megaterium [19]): 12 mm; zone of inhibition at 20 µg/disc (Citrobacter freundii [42]): 9 mm; zone of inhibition at 10 µg/disc (Proteus vulgaris [20]): 5 mm; zone of inhibition at 20 µg/disc (Klebsiella pneumoniae [43]): 9 mm |
